Literature values in patent US6107321A, “Diazabicyclooctane derivatives having selective 5-HT1Dalpha agonist activity” (Merck Sharp & Dohme Ltd., priority 1995, dated 2000).

Experiments:
[1] = test system: human 5-HT1D.sbsb.α and 5-HT1D.sbsb.β receptor subtypes; conditions: cf. WO-A-91/17174, Table 1
humans = conditions: therapeutic doses

discrimination between the human 5-HT1Dα and 5-HT1Dβ receptor subtypes [1]: barely discriminates
SMILES: CNS(=O)(=O)Cc1ccc2[nH]cc(CCN(C)C)c2c1 [sumatriptan]
adverse cardiovascular events (humans): certain adverse cardiovascular events
